Experimental data taken from patent US11272841B2, “Indicator fluids, systems, and methods for assessing movement of substances within, to or from a cerebrospinal fluid, brain or spinal cord compartment of a cranio-spinal cavity of a human” (BRAINWIDESOLUTIONS AS, priority 2017, dated 2022).

Columns and labels:
[1] = cited from earlier work
[2] = Percentage change in normalized T1 signal unit ratios in FreeSurfer-segmented brain regions after intrathecal gadobutrol (Table 5, FIG. 14e-h); type: in vivo, human; conditions: for Percentage change in signal unit ratios: mean ± SD
Source text: The alignment of longitudinal data is illustrated in FIG. 14c-d. When repeated MRIs are obtained proper alignment is necessary for use of segmentation tools. Otherwise, it is not possible to examine how signals within defined regions of interest change over time. […] The co-registered MRI 1409 show no good co-registration. In FIG. 14d is shown coronal T1 MRIs at Time 1 1410 and Time 2 1411, including co-registered MRIs 1412. In this latter case proper alignment is obtained. Methodology for alignment is established from prior art, as is methodology for segmentation of MRI acquisitions. The inventors have used the FreeSurfer software (version 6.0) (http://surfer.nmr.mgh.harvard.edu/) for segmentation and parcellation, and to measure how an indicator fluid present within CSF (the MRI contrast agent gadobutrol) changed the T1 SU. In this case, the MRI contrast agent was used as CSF tracer. The FreeSurfer software utilizes automated Talairach transformation 1402, and allows for segmentation of a wide range of brain regions, including the subcortical white matter and deep gray matter volumetric structures (including hippocampus, amygdala, caudate, putamen, ventricles).
Using prior art methodology for alignment and segmentation, changes in indication signals over time may be determined. This is further illustrated in Table 5. The results are from 8 individuals who underwent MRI for tentative idiopathic intracranial hypotension due to CSF leakage. A CSF leakage was identified in 3/8 individuals. Otherwise the individuals were healthy. Table 5 presents the percentage change in normalized T1 signals, i.e. indication signal ratios, over time, as compared to T1 weighted MRI without CSF tracer present. […] The MRI signal increase was significant at all main locations (Table 5). The determination of signal unit ratios was described with reference to FIG. 7.
Each image acquisition lasted 6 minutes and 29 seconds.
The inventors determined percentage change in signal units when indicator fluid was present in the CSF compartment, as compared to a point of time without any indicator fluid within the CSF compartment. Four different regions were examined, segmented using FreeSurfer, namely CSF (FIG. 14e), entorhinal cortex (FIG. 14f), hippocampus (FIG. 14g) and Limbic structures (FIG. 14h). The two cohorts of individuals included reference subjects who were close to healthy and a population with a subtype of dementia. For the CSF compartment (FIG. 14e) is shown percentage change in signal unit ratios 1413 versus time 1414, including trend plots for reference subjects 1415 and individuals with dementia 1416. […] Peak for reference subjects occurred after 6-9 hours while after 24 hours for the dementia population.

Percentage change in signal unit ratios ([2]; Basal ganglia, 1.5-2 hours): −3 ± 8%
Percentage change in signal unit ratios ([2]; Basal ganglia, 2-4 hours): −6 ± 14%
Percentage change in signal unit ratios ([2]; Basal ganglia, 4-6 hours): 1 ± 25%
Percentage change in signal unit ratios ([2]; Basal ganglia, 6-9 hours): −4 ± 14%
Percentage change in signal unit ratios ([2]; Basal ganglia, 24 hours): 4 ± 18%
Time of peak percentage change in signal unit ratios ([2]; CSF (FIG. 14e), reference subjects and dementia individuals): 6 to 9 h
Percentage change in signal unit ratios ([2]; CSF [24], 1.5-2 hours after intrathecal gadobutrol, 8 individuals): 16 ± 20%
Percentage change in signal unit ratios ([2]; CSF [24], 2-4 hours): 101 ± 116%
Percentage change in signal unit ratios ([2]; CSF [24], 4-6 hours): 354 ± 309%
Percentage change in signal unit ratios ([2]; CSF [24], 6-9 hours): 500 ± 421%
Percentage change in signal unit ratios ([2]; CSF [24], 24 hours): 157 ± 164%
Percentage change in signal unit ratios ([2]; Cerebellar cortex, 1.5-2 hours): 6 ± 6%
Percentage change in signal unit ratios ([2]; Cerebellar cortex, 2-4 hours): 12 ± 27%
Percentage change in signal unit ratios ([2]; Cerebellar cortex, 4-6 hours): 45 ± 58%
Percentage change in signal unit ratios ([2]; Cerebellar cortex, 6-9 hours): 67 ± 80%
Percentage change in signal unit ratios ([2]; Cerebellar cortex, 24 hours): 53 ± 47%
Percentage change in signal unit ratios ([2]; Cerebellar white matter, 1.5-2 hours): 1 ± 9%
Percentage change in signal unit ratios ([2]; Cerebellar white matter, 2-4 hours): −3 ± 14%
Percentage change in signal unit ratios ([2]; Cerebellar white matter, 4-6 hours): 3 ± 23%
Percentage change in signal unit ratios ([2]; Cerebellar white matter, 6-9 hours): 2 ± 19%
Percentage change in signal unit ratios ([2]; Cerebellar white matter, 24 hours): 15 ± 23%
Percentage change in signal unit ratios ([2]; Cerebral cortex (grey matter), 1.5-2 hours): −3 ± 7%
Percentage change in signal unit ratios ([2]; Cerebral cortex (grey matter), 2-4 hours): −1 ± 15%
Percentage change in signal unit ratios ([2]; Cerebral cortex (grey matter), 4-6 hours): 26 ± 44%
Percentage change in signal unit ratios ([2]; Cerebral cortex (grey matter), 6-9 hours): 44 ± 50%
Percentage change in signal unit ratios ([2]; Cerebral cortex (grey matter), 24 hours): 52 ± 54%
Percentage change in signal unit ratios ([2]; Cerebral white matter, 1.5-2 hours): −3 ± 9%
Percentage change in signal unit ratios ([2]; Cerebral white matter, 2-4 hours): −1 ± 18%
Percentage change in signal unit ratios ([2]; Cerebral white matter, 4-6 hours): 26 ± 40%
Percentage change in signal unit ratios ([2]; Cerebral white matter, 6-9 hours): 34 ± 46%
Percentage change in signal unit ratios ([2]; Cerebral white matter, 24 hours): 27 ± 33%
Percentage change in signal unit ratios ([2]; Hippocampus, amygdala, accumbens, entorhinal, 1.5-2 hours): −2 ± 7%
Percentage change in signal unit ratios ([2]; Hippocampus, amygdala, accumbens, entorhinal, 2-4 hours): −1 ± 15%
Percentage change in signal unit ratios ([2]; Hippocampus, amygdala, accumbens, entorhinal, 4-6 hours): 28 ± 38%
Percentage change in signal unit ratios ([2]; Hippocampus, amygdala, accumbens, entorhinal, 6-9 hours): 43 ± 43%
Percentage change in signal unit ratios ([2]; Hippocampus, amygdala, accumbens, entorhinal, 24 hours): 42 ± 39%
Percentage change in signal unit ratios ([2]; Thalamus, 1.5-2 hours): −2 ± 8%
Percentage change in signal unit ratios ([2]; Thalamus, 2-4 hours): −4 ± 15%
Percentage change in signal unit ratios ([2]; Thalamus, 4-6 hours): 5 ± 26%
Percentage change in signal unit ratios ([2]; Thalamus, 6-9 hours): 2 ± 18%
Percentage change in signal unit ratios ([2]; Thalamus, 24 hours): 11 ± 21%
Time of peak percentage change in signal unit ratios ([2]; entorhinal cortex, dementia population): 24 h
Time of peak percentage change in signal unit ratios ([2]; entorhinal cortex, reference subjects): 6 to 9 h
Time of peak percentage change in signal unit ratios ([2]; hippocampus, dementia cohort): 24 h
Time of peak percentage change in signal unit ratios ([2]; hippocampus, reference subjects): 6 to 9 h
Time of peak percentage change in signal unit ratios ([2]; limbic structures, dementia cohort): 24 h
Time of peak percentage change in signal unit ratios ([2]; limbic structures, reference subjects): 6 to 9 h
Structure (SMILES): O=C([O-])CN1CCN(CC(=O)[O-])CCN([C@H](CO)[C@H](O)CO)CCN(CC(=O)[O-])CC1.[Gd+3] (racemic) [gadobutrol]
Half-time of gadobutrol in blood [1]: about 1.8 hours
